Data reported in PubChem BioAssay AID248 (DTP/NCI, 2004).
Inconclusive results and toxic doses are left out. Rule as the data show it: active = T/C of 150% or more; inactive = T/C below 125%.

Tested on: L1210 leukemia ip in BDF1 mice, survival T/C
Assay: NCI In Vivo Anticancer Drug Screen. Data for tumor model L1210 Leukemia (intraperitoneal) in B6D2F1 (BDF1) mice
Settings: endpoint: mean survival time, higher = longer survival
How it was run: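 Value reflects the ratio of survival in compound-treated mice to survival in vehicle-treated controls, with both groups carrying the same transplanted tumor.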

[1] = dose: 100.0 mg/kg/injection, schedule: Q01DX009 (ip), vehicle: saline with Tween-80
[2] = dose: 200.0 mg/kg/injection, schedule: Q01DX009 (ip), vehicle: saline with Tween-80
[3] = dose: 400.0 mg/kg/injection, schedule: Q01DX009 (ip), vehicle: saline with Tween-80
[4] = dose: 50.0 mg/kg/injection, schedule: Q01DX009 (ip), vehicle: saline
[5] = dose: 100.0 mg/kg/injection, schedule: Q04DX003 (ip), vehicle: saline
[6] = dose: 200.0 mg/kg/injection, schedule: Q04DX003 (ip), vehicle: saline
[7] = dose: 100.0 mg/kg/injection, schedule: Q04DX003 (ip), vehicle: saline with Tween-80

Measured: T/C

c1coc(CCc2nc3ccccc3[nH]2)c1
inactive: dose: 50.0 mg/kg/injection, schedule: Q01DX009 (ip), vehicle: Klucel (hydroxypropylcellulose) (HPC) 121 % of control | dose: 100.0 mg/kg/injection, schedule: Q01DX009 (ip), vehicle: Klucel (hydroxypropylcellulose) (HPC) 116 % of control | dose: 100.0 mg/kg/injection, schedule: Q04DX003 (ip), vehicle: Klucel (hydroxypropylcellulose) (HPC) 96 % of control | dose: 200.0 mg/kg/injection, schedule: Q01DX009 (ip), vehicle: Klucel (hydroxypropylcellulose) (HPC) 100 % of control | dose: 200.0 mg/kg/injection, schedule: Q04DX003 (ip), vehicle: Klucel (hydroxypropylcellulose) (HPC) 100 % of control

Cc1ccc(/C(=C/c2ccc([N+](=O)[O-])cc2)C(=O)Nc2ccc(S(=O)(=O)F)cc2)cc1
inactive: [1] 94 % of control | [2] 89 % of control | [3] 86 % of control

COC(=O)C1(C)COP(=O)(N2CC2C)OC1 (stereo unspecified)
inactive: dose: 100.0 mg/kg/injection, schedule: Q01DX001 (ip), vehicle: saline 101 % of control | dose: 200.0 mg/kg/injection, schedule: Q01DX001 (ip), vehicle: saline 101 % of control | dose: 400.0 mg/kg/injection, schedule: Q01DX001 (ip), vehicle: saline 97 % of control

O=C1OC(=O)c2c(Br)cccc21
inactive: dose: 5.0 mg/kg/injection, schedule: Q04DX003 (ip), vehicle: Klucel (hydroxypropylcellulose) (HPC) 102 % of control | dose: 10.0 mg/kg/injection, schedule: Q04DX003 (ip), vehicle: Klucel (hydroxypropylcellulose) (HPC) 100 % of control | dose: 20.0 mg/kg/injection, schedule: Q04DX003 (ip), vehicle: Klucel (hydroxypropylcellulose) (HPC) 114 % of control

NC(c1ccccc1)C(C(=O)O)C(=O)O (stereo unspecified)
inactive: dose: 75.0 mg/kg/injection, schedule: Q04DX003 (ip), vehicle: saline 95 % of control | dose: 150.0 mg/kg/injection, schedule: Q04DX003 (ip), vehicle: saline 94 % of control | dose: 300.0 mg/kg/injection, schedule: Q04DX003 (ip), vehicle: saline 95 % of control

CCOc1nc(N)c(C(N)=O)cc1C#N
inactive: dose: 100.0 mg/kg/injection, schedule: Q04DX003 (ip), vehicle: saline sonified 98 % of control | dose: 200.0 mg/kg/injection, schedule: Q04DX003 (ip), vehicle: saline sonified 105 % of control

N#C[SH2+].N#C[SH2+].N#C[SH2+].N#C[SH2+].[Cu+2].c1ccc(C[P+](c2ccccc2)(c2ccccc2)c2ccccc2)cc1
inactive: dose: 6.0 mg/kg/injection, schedule: Q01DX009 (ip), vehicle: saline 100 % of control

NC(=O)C(Cc1cnc[nH]1)NC(=O)OCc1ccccc1 (stereo unspecified)
inactive: [1] 91 % of control | [2] 96 % of control | [3] 105 % of control

Cn1cnc2cc(Cl)ccc21
inactive: [4] 101 % of control | dose: 100.0 mg/kg/injection, schedule: Q01DX009 (ip), vehicle: saline 104 % of control | dose: 200.0 mg/kg/injection, schedule: Q01DX009 (ip), vehicle: saline 97 % of control

CCCCC[n+]1ccc(C(N)=O)cc1
inactive: [5] 105 % of control | [6] 100 % of control

COc1ccc(C)cc1NC(=O)NNS(=O)(=O)c1ccc(C)cc1
inactive: dose: 50.0 mg/kg/injection, schedule: Q01DX009 (ip), vehicle: saline with Tween-80 93 % of control | [1] 93 % of control | [2] 93 % of control

Cc1cc(N2C(=O)CSC2=S)ccc1Br
inactive: [1] 104 % of control | [7] 96 % of control | [2] 93 % of control | dose: 200.0 mg/kg/injection, schedule: Q04DX003 (ip), vehicle: saline with Tween-80 93 % of control | dose: 400.0 mg/kg/injection, schedule: Q04DX003 (ip), vehicle: saline with Tween-80 104 % of control

O=C(O)C(CCO)c1ccccc1 (stereo unspecified)
inactive: dose: 100.0 mg/kg/injection, schedule: Q04DX002 (ip), vehicle: saline with Tween-80 95 % of control | dose: 200.0 mg/kg/injection, schedule: Q04DX002 (ip), vehicle: saline with Tween-80 100 % of control | dose: 400.0 mg/kg/injection, schedule: Q04DX002 (ip), vehicle: saline with Tween-80 95 % of control

Oc1ccc(-c2nnc(-c3ccccc3)nn2)cc1
inactive: dose: 100.0 mg/kg/injection, schedule: Q04DX003 (ip), vehicle: gum acacia 104 % of control | dose: 200.0 mg/kg/injection, schedule: Q04DX003 (ip), vehicle: gum acacia 95 % of control | dose: 400.0 mg/kg/injection, schedule: Q04DX003 (ip), vehicle: gum acacia 95 % of control

CC(C)OC(=S)SCC(=O)c1ccc([N+](=O)[O-])cc1
inactive: dose: 100.0 mg/kg/injection, schedule: Q04DX002 (ip), vehicle: Klucel (hydroxypropylcellulose) (HPC) 112 % of control | dose: 200.0 mg/kg/injection, schedule: Q04DX002 (ip), vehicle: Klucel (hydroxypropylcellulose) (HPC) 102 % of control | dose: 400.0 mg/kg/injection, schedule: Q04DX002 (ip), vehicle: Klucel (hydroxypropylcellulose) (HPC) 105 % of control

COC(=O)C(C)O (stereo unspecified)
inactive: [5] 97 % of control | [6] 105 % of control | dose: 400.0 mg/kg/injection, schedule: Q04DX003 (ip), vehicle: saline 107 % of control

CC(C)(C[NH-])C[NH-].CC(C)(C[NH-])C[NH-].CC(C)(C[NH-])C[NH-].[Co]
inactive: dose: 48.0 mg/kg/injection, schedule: Q01DX Z (ip), vehicle: saline 121 % of control | dose: 73.0 mg/kg/injection, schedule: Q01DX Z (ip), vehicle: saline 121 % of control | dose: 110.0 mg/kg/injection, schedule: Q01DX Z (ip), vehicle: saline 119 % of control | dose: 165.0 mg/kg/injection, schedule: Q01DX Z (ip), vehicle: saline 116 % of control

OC1OCC(OCc2ccccc2)C(OCc2ccccc2)C1OCc1ccccc1 (stereo unspecified)
inactive: dose: 100.0 mg/kg/injection, schedule: Q01DX001 (ip), vehicle: carboxymethylcellulose (CMC) 101 % of control | dose: 200.0 mg/kg/injection, schedule: Q01DX001 (ip), vehicle: carboxymethylcellulose (CMC) 101 % of control | dose: 400.0 mg/kg/injection, schedule: Q01DX001 (ip), vehicle: carboxymethylcellulose (CMC) 95 % of control

CCSc1ncnc2nc[nH]c12
inactive: dose: 75.0 mg/kg/injection, schedule: Q01DX001 (ip), vehicle: acetone 105 % of control | dose: 150.0 mg/kg/injection, schedule: Q01DX001 (ip), vehicle: acetone 105 % of control | dose: 300.0 mg/kg/injection, schedule: Q01DX001 (ip), vehicle: acetone 105 % of control

CC(=O)OC(CC(O)(C(F)(F)F)C(F)(F)F)C(C)(C)C (stereo unspecified)
inactive: dose: 25.0 mg/kg/injection, schedule: Q01DX009 (ip), vehicle: saline 104 % of control | [4] 102 % of control | [7] 98 % of control

CC(C)(C)NC/C(=C\c1ccccc1)S(=O)(=O)c1ccccc1[N+](=O)[O-]
inactive: dose: 50.0 mg/kg/injection, schedule: Q01DX001 (ip), vehicle: saline with Tween-80 91 % of control | dose: 100.0 mg/kg/injection, schedule: Q01DX001 (ip), vehicle: saline with Tween-80 93 % of control | dose: 200.0 mg/kg/injection, schedule: Q01DX001 (ip), vehicle: saline with Tween-80 95 % of control

O=P(NC12CC3CC(CC(C3)C1)C2)(OCc1ccccc1)OCc1ccccc1
inactive: dose: 75.0 mg/kg/injection, schedule: Q01DX009 (ip), vehicle: Klucel (hydroxypropylcellulose) (HPC) 97 % of control | dose: 150.0 mg/kg/injection, schedule: Q01DX009 (ip), vehicle: Klucel (hydroxypropylcellulose) (HPC) 90 % of control | dose: 300.0 mg/kg/injection, schedule: Q01DX009 (ip), vehicle: Klucel (hydroxypropylcellulose) (HPC) 95 % of control

Cn1c(=O)c2[nH]c(-c3cccs3)nc2n(C)c1=O
inactive: dose: 50.0 mg/kg/injection, schedule: Q01DX001 (ip), vehicle: other 101 % of control | dose: 100.0 mg/kg/injection, schedule: Q01DX001 (ip), vehicle: other 90 % of control | dose: 200.0 mg/kg/injection, schedule: Q01DX001 (ip), vehicle: other 97 % of control | dose: 400.0 mg/kg/injection, schedule: Q01DX001 (ip), vehicle: other 92 % of control
